17 compounds from patent US20090105278A1, “Selective inhibitors of human corticosteroid syntheses” (Universitat Des Saarlandes, priority 2004, published 2009) can be followed below.

Where a name gives a salt, the structure may show the parent alone.

For test [1], the target named is T1, human CYP17 (Homo sapiens, UniProt P05093).
T1 construct: made in house; host or cells: E. coli pJL17/OR (membrane fraction)
T1 sequence (P05093 1-508): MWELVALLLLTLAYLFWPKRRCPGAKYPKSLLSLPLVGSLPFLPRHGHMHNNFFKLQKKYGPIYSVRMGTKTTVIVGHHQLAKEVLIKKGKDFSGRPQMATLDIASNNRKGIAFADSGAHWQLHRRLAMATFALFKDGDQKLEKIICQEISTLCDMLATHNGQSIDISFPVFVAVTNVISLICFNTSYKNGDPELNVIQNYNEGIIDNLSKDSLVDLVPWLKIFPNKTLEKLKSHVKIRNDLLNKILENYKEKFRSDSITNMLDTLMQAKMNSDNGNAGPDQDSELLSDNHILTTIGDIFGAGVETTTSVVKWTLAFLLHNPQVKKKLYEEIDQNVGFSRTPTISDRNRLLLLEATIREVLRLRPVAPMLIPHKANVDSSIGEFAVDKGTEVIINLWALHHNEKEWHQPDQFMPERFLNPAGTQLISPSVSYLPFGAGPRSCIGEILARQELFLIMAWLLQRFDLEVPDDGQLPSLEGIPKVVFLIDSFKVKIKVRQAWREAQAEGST
The test is described as follows: Percent inhibition of CYP17 (membrane fraction of E. coli pJL17/OR). Format: biochemical. Conditions: E. coli which expresses human CYP17; 5 mg/ml protein; progesterone substrate 2.5 μM; inhibitor 2.5 μM; read-out: % Inhibition human CYP17. In short, it runs like this: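 Membranes were isolated from E. coli pJL17/OR, which coexpresses human CYP17 with rat NADPH-P450-reductase, by lysozyme treatment, sonication and centrifugation at 50,000 g, then stored at −70° C. Reactions were started with diluted membrane suspension (0.8 to 1 mg of protein per ml), incubated at 37° C for 30 min, extracted with EtOAc and analyzed by HPLC. Inhibition was calculated from reduced substrate conversion versus DMSO controls.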

Test [2] deals with T2, human CYP11B2 (Homo sapiens, UniProt P19099).
T2 sequence (P19099 25-503): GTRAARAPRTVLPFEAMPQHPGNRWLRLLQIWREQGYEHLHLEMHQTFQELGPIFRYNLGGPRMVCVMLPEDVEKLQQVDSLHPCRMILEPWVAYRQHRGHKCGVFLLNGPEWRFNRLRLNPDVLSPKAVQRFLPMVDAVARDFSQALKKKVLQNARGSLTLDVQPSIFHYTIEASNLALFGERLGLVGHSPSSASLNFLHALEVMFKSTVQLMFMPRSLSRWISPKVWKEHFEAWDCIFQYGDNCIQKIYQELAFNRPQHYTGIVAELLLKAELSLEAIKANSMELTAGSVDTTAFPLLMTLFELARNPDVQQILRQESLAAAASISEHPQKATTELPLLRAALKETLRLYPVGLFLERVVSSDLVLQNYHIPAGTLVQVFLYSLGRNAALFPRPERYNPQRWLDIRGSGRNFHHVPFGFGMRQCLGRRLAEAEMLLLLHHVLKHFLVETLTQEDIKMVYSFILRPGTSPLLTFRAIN
The test is described as follows: V79 MZh 11B2 cells inhibition test. Also on record: expressed in transfected cells; host or cells: V79 MZh11B2 (Chinese hamster lung fibroblasts). It is filed as cell-based. Conditions: hamster fibroblasts which express human CYP11B2; deoxycorticosterone substrate 100 nM; read-out: IC50 V79 11B2 hCYP11B2. How it is done:
Both cell lines were cultured in DMEM^+ containing […] and the antibiotics penicillin and streptomycin (10%) for protection from bacterial contamination. The cells were passaged every 2-3 days after treatment with trypsin/EDTA because the doubling rate was 1-2 days depending on the number of cells. […] When there was further need, freshly thawed cells were employed.
Thereafter, the plate was stored at 37° C. and […] in a CO2 incubator. The V79 MZh 11B1 cells were incubated for 120 min, and the V79 MZh 11B2 cells were incubated for 40 min. Controls without inhibitor were treated in the same way. The enzyme reactions were quenched by extracting the supernatant with 500 μl of EtOAc. The samples were centrifuged (10,000 g, 2 min), the solvent was removed and evaporated.
For V79 MZh11B2, the conversion rate was obtained in accordance with equation 3: […]
It was calculated by determining the percent inhibition for at least 3 different inhibitor concentrations, which must all be in the linear range of the sigmoidal IC50 curve (log C/% inhibition).
The calculation was effected by linear regression. The values determined were used only if they formed a straight line with a reliability of […].
The plate was developed twice with the mobile solvent chloroform:methanol:water (300:20:1). Unlabeled 11-deoxycorticosterone and corticosterone were applied as a reference for the CYP11B1 reaction. For the CYP11B2 reaction, 11-deoxycorticosterone, corticosterone, 18-hydroxycorticosterone and aldosterone were used as references. The detection of the unlabeled references was effected at 260 nm. Subsequently, imaging plates (BAS MS2340, for ^14C samples, Raytest, Straubenhardt, Germany) were exposed to the HPTLC plates for 48 h. The imaging plates were scanned with the phosphoimager system Fuji FLA 3000 (Raytest, Straubenhardt, Germany), and the steroids were quantified.

The term inhibition denotes the drop in the measured response relative to a control, in per cent. As usually defined, the IC50 is the concentration that inhibits the measured activity by half. As for `COc1ccc2c(c1)CC/C2=C\c1cccnc1` [Compound 11a, 3-[(E)-(5-Methoxy-2,3-dihydro-1H-indane-1-ylidene)methyl]pyridine Hydrochloride], the inhibition at 2.5 µM in test [1] was found to be 36%. For the same compound, in test [2], the IC50 was determined as 34.2 nM.

In the case of `COc1ccc2c(c1)CC/C2=C/c1cccnc1` [Compound 11b, 3-[(Z)-(5-Methoxy-2,3-dihydro-1H-indane-1-ylidene)methyl]pyridine Hydrochloride], in test [1], the inhibition at 2.5 µM came to 49%. Besides, the 50% inhibitory concentration (IC50) in test [2] is 26.4 nM.

For the compound `COc1ccc2c(c1)CCC/C2=C\c1cccnc1` [Compound 13a, 3-[(E)-(6-Methoxy-3,4-dihydronaphthalene-1(2H)-ylidene)methyl]pyridine Hydrochloride], the inhibition at 2.5 µM in test [1] turned out to be 20%. Moreover, the IC50 in test [2] came out at 56.6 nM.

Regarding `COc1ccc2c(c1)CCC/C2=C/c1cccnc1.Cl` [Compound 13b, 3-[(Z)-(6-Methoxy-3,4-dihydronaphthalene-1(2H)-ylidene)methyl]pyridine Hydrochloride], the inhibition at 2.5 µM in test [1] stood at 17%. Also, the 50% inhibitory concentration (IC50) in test [2] was 878 nM.

Regarding `CCOc1ccc2c(c1)CC/C2=C\c1cccnc1` [Compound 19a, 3-[(E)-(5-Ethoxy-2,3-dihydro-1H-indane-1-ylidene)methyl]pyridine Hydrochloride], in test [1], the inhibition at 2.5 µM is 13%. The IC50 in test [2] stood at 79.4 nM.

For `CCOc1ccc2c(c1)CC/C2=C/c1cccnc1` [Compound 19b, 3-[(Z)-(5-Ethoxy-2,3-dihydro-1H-indane-1-ylidene)methyl]pyridine Hydrochloride], in test [1], the inhibition at 2.5 µM was 6%. Further, in test [2], the IC50 amounted to 248 nM.

For `Cc1cccc2c1CC/C2=C\c1cccnc1` [Compound 23a, 3-[(E)-(4-Methyl-2,3-dihydro-1H-indane-1-ylidene)methyl]pyridine Hydrochloride], in test [1], the inhibition at 2.5 µM was 40%. The IC50 in test [2] worked out at 108 nM.

As to `Fc1cccc2c1CC/C2=C\c1cccnc1` [Compound 24a, 3-[(E)-(4-Fluoro-2,3-dihydro-1H-indane-1-ylidene)methyl]pyridine Hydrochloride], the inhibition at 2.5 µM in test [1] was 42%. In addition, the IC50 in test [2] was determined as 20.9 nM.

Turning to `Clc1cccc2c1CC/C2=C\c1cccnc1` [Compound 25a, 3-[(E)-(4-Chloro-2,3-dihydro-1H-indane-1-ylidene)methyl]pyridine Hydrochloride], the inhibition at 2.5 µM in test [1] was 14%. For the same compound, the 50% inhibitory concentration (IC50) in test [2] turned out to be 8.7 nM.

As for `Clc1cccc2c1CC/C2=C/c1cccnc1` [Compound 25b, 3-[(Z)-(4-Chloro-2,3-dihydro-1H-indane-1-ylidene)methyl]pyridine Hydrochloride], the inhibition at 2.5 µM in test [1] stood at 32%. Moreover, in test [2], the half-inhibitory concentration (IC50) was determined as 30.6 nM.

In the case of `COc1cccc2c1/C(=C/c1cccnc1)CC2` [Compound 26a, 3-[(E)-(7-Methoxy-2,3-dihydro-1H-indane-1-ylidene)methyl]pyridine Hydrochloride], in test [1], the inhibition at 2.5 µM was 5%. The IC50 in test [2] is 26.7 nM.

Turning to `Fc1ccc2c(c1)CC/C2=C\c1cncnc1` [Compound 28a, 5-[(E)-(5-Fluoro-2,3-dihydro-1H-indane-1-ylidene)methyl]pyrimidine Hydrochloride], in test [1], the inhibition at 2.5 µM amounted to 6%. Moreover, in test [2], the IC50 stood at 27.4 nM.

Turning to `Fc1ccc2c(c1)CC/C2=C\c1cccc2cnccc12` [Compound 30a, 5-[(E)-(5-Fluoro-2,3-dihydro-1H-indane-1-ylidene)methyl]isoquinoline Hydrochloride], the inhibition at 2.5 µM in test [1] came to 57%. Besides, in test [2], the half-inhibitory concentration (IC50) was determined as 58.1 nM.

For `Fc1ccc2c(c1)CC/C2=C/c1cccc2cnccc12` [Compound 30b, 5-[(Z)-(5-Fluoro-2,3-dihydro-1H-indane-1-ylidene)methyl]isoquinoline Hydrochloride], the inhibition at 2.5 µM in test [1] came to 65%. Also, the IC50 in test [2] stood at 26.1 nM.

As for `C(=C1/CCc2ccccc21)/c1cnc[nH]1` [Compound 42a, 5-[(E)-2,3-Dihydro-1H-indane-1-ylidenemethyl]-1H-imidazole], the inhibition at 2.5 µM in test [1] amounted to 11%. For the same compound, in test [2], the 50% inhibitory concentration (IC50) came to 41 nM.

Take `C(=C1\CCc2ccccc21)/c1cnc[nH]1` [Compound 42b, 5-[(Z)-2,3-Dihydro-1H-ind-1-ylidenemethyl]-1H-imidazolium oxalate]: the inhibition at 2.5 µM in test [1] was found to be 1%. For the same compound, the IC50 in test [2] amounted to 11 nM.

Take `Brc1ccc2c(c1)CC/C2=C\c1cnc[nH]1.Cl` [Compound 49a, 5-[(E)-(5-Bromo-2,3-dihydro-1H-indene-1-ylidene)methyl]-1H-imidazolium chloride]: the inhibition at 2.5 µM in test [1] was determined as 13%. The concentration for half-maximal inhibition (IC50) in test [2] was 92.8 nM.
